{"source": "paper PMC6704710", "about": "“Preclinical evaluation of 3D185, a novel potent inhibitor of FGFR1/2/3 and CSF-1R, in FGFR-dependent and macrophage-dominant cancer models” (Journal of Experimental & Clinical Cancer Research : CR, 2019)", "key": {"[1]": {"biological_target": "T1, CDK13/cyclinK(h) (Homo sapiens, UniProt Q14004)", "T1 construct": "purchased Eurofins (KinaseProfiler)", "assay": "Eurofins kinase panel", "assay_type": "biochemical", "conditions": "read-out: Inhibition rate (%)", "description": "(§1) Active FGFR1–4, VEGFR1, KDR, VEGFR3, PDGFRα and PDGFRβ proteins were purchased from Eurofins (Fremont, United States), and kinase activity was assessed using ELISA, as previously reported. The broader kinase selectivity profile of 3D185 (0.01, 0.1, and 1 μM) was determined by Eurofins by screening the compound against 372 human recombinant kinases. Increasing concentrations of ATP were diluted for the kinase reaction in the ATP competition assay. CSF-1R kinase activity was analyzed using the Z’-LYTE™ Kinase Assay Kit (Thermo Fisher, United States). The assay formats are described in the SelectScreen Kinase Profiling Service Zlyte protocol. IC50 values were calculated by dose-response curve fitting using Prism (Graph Pad)."}, "[2]": {"biological_target": "T2, PRP4(h) (Homo sapiens, UniProt Q13523)", "T2 construct": "purchased Eurofins (KinaseProfiler)", "assay": "Eurofins kinase panel", "assay_type": "biochemical", "conditions": "read-out: Inhibition rate (%)", "description": "as §1"}, "[3]": {"biological_target": "T3, ErbB4(h) (Homo sapiens, UniProt Q15303)", "T3 construct": "purchased Eurofins (KinaseProfiler)", "T3 sequence (Q15303 26-1308)": "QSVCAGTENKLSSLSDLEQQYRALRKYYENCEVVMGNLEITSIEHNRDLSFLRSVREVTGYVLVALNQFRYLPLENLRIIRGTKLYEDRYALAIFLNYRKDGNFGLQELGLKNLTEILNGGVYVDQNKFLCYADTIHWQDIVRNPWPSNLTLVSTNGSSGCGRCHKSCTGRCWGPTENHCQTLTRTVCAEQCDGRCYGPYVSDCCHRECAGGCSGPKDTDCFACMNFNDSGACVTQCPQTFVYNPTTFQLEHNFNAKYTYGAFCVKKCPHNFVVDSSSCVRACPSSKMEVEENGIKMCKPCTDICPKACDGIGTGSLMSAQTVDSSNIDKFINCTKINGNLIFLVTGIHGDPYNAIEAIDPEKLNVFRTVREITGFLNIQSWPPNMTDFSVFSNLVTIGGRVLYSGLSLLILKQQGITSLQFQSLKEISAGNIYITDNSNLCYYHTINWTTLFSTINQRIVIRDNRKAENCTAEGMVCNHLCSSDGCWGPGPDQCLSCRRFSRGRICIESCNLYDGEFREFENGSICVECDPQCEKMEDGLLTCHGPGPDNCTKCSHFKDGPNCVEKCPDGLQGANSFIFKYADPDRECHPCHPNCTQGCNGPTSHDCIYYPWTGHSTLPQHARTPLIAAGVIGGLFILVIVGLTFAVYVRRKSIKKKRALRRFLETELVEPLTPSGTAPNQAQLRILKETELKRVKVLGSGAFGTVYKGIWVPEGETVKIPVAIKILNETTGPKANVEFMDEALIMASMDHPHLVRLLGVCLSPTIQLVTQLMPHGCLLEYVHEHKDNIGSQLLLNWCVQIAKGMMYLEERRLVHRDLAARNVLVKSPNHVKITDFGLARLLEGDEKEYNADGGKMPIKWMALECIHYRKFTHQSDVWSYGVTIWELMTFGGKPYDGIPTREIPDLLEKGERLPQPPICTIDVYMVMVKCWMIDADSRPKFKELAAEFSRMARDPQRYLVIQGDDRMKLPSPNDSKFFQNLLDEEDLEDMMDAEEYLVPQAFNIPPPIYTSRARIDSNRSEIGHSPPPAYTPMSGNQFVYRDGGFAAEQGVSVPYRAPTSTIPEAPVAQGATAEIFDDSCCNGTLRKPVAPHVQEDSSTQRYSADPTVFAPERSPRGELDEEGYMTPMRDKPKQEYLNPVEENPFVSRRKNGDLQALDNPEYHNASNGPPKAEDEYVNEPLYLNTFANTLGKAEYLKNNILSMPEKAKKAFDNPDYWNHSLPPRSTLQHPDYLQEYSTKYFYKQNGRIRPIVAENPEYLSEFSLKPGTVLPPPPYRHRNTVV", "assay": "Eurofins kinase panel", "assay_type": "biochemical", "conditions": "read-out: Inhibition rate (%)"}, "[4]": {"biological_target": "T4, JNK3(h) (Homo sapiens, UniProt P53779)", "T4 construct": "purchased Eurofins (KinaseProfiler)", "assay": "Eurofins kinase panel", "assay_type": "biochemical", "conditions": "read-out: Inhibition rate (%)"}, "[5]": {"biological_target": "T5, VEGFR1 (Homo sapiens, UniProt P17948)", "T5 construct": "purchased Eurofins (Fremont, United States)", "assay": "Kinase inhibition assay (ELISA)", "assay_type": "biochemical", "description": "as §1, with “[…].” for “The broader kinase selectivity profile of 3D185 (0.01, 0.1, and 1 μM) was determined by Eurofins by screening the compound against 372 human recombinant kinases.”"}, "[6]": {"biological_target": "T6, VEGFR3 (Homo sapiens, UniProt P35916)", "T6 construct": "purchased Eurofins (Fremont, United States)", "assay": "Kinase inhibition assay (ELISA)", "assay_type": "biochemical", "description": "as §1, with “[…].” for “The broader kinase selectivity profile of 3D185 (0.01, 0.1, and 1 μM) was determined by Eurofins by screening the compound against 372 human recombinant kinases.”"}, "[7]": {"biological_target": "T7, PDGFRα (Homo sapiens, UniProt P16234)", "T7 construct": "purchased Eurofins (Fremont, United States)", "assay": "Kinase inhibition assay (ELISA)", "assay_type": "biochemical", "description": "as §1, with “[…].” for “The broader kinase selectivity profile of 3D185 (0.01, 0.1, and 1 μM) was determined by Eurofins by screening the compound against 372 human recombinant kinases.”"}, "[8]": {"biological_target": "T8, PDGFRβ (Homo sapiens, UniProt P09619)", "T8 construct": "purchased Eurofins (Fremont, United States)", "assay": "Kinase inhibition assay (ELISA)", "assay_type": "biochemical", "description": "as §1, with “[…].” for “The broader kinase selectivity profile of 3D185 (0.01, 0.1, and 1 μM) was determined by Eurofins by screening the compound against 372 human recombinant kinases.”"}, "[9]": {"biological_target": "T9, ULK3(h) (Homo sapiens, UniProt Q6PHR2)", "T9 construct": "purchased Eurofins (KinaseProfiler)", "T9 sequence (Q6PHR2 1-472)": "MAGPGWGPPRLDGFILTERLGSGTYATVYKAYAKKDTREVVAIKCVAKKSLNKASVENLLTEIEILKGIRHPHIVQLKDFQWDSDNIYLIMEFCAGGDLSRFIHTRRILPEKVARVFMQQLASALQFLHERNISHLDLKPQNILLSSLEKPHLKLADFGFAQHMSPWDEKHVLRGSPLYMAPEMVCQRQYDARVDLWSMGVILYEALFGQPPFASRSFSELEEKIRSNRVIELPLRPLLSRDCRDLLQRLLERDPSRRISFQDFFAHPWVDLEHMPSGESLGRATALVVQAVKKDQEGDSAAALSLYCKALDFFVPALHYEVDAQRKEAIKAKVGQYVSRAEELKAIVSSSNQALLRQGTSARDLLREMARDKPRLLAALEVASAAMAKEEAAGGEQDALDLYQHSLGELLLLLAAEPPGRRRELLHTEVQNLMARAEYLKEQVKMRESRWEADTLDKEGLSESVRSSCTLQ", "assay": "Eurofins kinase panel", "assay_type": "biochemical", "conditions": "read-out: Inhibition rate (%)"}, "[10]": {"biological_target": "T10, Abl(h) (Homo sapiens, UniProt P00519)", "T10 construct": "purchased Eurofins (KinaseProfiler)", "assay": "Eurofins kinase panel", "assay_type": "biochemical", "conditions": "read-out: Inhibition rate (%)"}, "[11]": {"biological_target": "T11, BTK(R28H)(h) (Homo sapiens, UniProt Q06187, R28H)", "T11 construct": "purchased Eurofins (KinaseProfiler)", "T11 sequence (Q06187 whole entry R28H)": "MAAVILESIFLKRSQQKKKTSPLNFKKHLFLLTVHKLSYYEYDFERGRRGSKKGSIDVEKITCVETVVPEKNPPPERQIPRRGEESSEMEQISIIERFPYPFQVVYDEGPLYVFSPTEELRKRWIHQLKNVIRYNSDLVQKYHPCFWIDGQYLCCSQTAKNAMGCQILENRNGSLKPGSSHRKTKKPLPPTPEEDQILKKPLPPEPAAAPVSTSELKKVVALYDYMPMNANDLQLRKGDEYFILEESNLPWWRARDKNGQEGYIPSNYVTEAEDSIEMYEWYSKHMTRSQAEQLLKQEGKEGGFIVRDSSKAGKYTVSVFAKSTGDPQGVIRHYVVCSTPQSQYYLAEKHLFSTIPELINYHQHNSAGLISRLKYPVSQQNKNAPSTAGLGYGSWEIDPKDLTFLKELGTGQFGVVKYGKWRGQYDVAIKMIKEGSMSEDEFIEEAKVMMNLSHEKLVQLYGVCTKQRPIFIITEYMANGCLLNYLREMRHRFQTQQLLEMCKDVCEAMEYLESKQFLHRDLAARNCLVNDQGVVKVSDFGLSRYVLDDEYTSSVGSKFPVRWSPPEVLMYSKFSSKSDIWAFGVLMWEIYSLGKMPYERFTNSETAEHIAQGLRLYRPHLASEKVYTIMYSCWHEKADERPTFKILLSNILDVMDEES", "assay": "Eurofins kinase panel", "assay_type": "biochemical", "conditions": "read-out: Inhibition rate (%)"}, "[12]": {"biological_target": "T12, DAPK1(h) (Homo sapiens, UniProt P53355)", "T12 construct": "purchased Eurofins (KinaseProfiler)", "T12 sequence (P53355 whole entry)": "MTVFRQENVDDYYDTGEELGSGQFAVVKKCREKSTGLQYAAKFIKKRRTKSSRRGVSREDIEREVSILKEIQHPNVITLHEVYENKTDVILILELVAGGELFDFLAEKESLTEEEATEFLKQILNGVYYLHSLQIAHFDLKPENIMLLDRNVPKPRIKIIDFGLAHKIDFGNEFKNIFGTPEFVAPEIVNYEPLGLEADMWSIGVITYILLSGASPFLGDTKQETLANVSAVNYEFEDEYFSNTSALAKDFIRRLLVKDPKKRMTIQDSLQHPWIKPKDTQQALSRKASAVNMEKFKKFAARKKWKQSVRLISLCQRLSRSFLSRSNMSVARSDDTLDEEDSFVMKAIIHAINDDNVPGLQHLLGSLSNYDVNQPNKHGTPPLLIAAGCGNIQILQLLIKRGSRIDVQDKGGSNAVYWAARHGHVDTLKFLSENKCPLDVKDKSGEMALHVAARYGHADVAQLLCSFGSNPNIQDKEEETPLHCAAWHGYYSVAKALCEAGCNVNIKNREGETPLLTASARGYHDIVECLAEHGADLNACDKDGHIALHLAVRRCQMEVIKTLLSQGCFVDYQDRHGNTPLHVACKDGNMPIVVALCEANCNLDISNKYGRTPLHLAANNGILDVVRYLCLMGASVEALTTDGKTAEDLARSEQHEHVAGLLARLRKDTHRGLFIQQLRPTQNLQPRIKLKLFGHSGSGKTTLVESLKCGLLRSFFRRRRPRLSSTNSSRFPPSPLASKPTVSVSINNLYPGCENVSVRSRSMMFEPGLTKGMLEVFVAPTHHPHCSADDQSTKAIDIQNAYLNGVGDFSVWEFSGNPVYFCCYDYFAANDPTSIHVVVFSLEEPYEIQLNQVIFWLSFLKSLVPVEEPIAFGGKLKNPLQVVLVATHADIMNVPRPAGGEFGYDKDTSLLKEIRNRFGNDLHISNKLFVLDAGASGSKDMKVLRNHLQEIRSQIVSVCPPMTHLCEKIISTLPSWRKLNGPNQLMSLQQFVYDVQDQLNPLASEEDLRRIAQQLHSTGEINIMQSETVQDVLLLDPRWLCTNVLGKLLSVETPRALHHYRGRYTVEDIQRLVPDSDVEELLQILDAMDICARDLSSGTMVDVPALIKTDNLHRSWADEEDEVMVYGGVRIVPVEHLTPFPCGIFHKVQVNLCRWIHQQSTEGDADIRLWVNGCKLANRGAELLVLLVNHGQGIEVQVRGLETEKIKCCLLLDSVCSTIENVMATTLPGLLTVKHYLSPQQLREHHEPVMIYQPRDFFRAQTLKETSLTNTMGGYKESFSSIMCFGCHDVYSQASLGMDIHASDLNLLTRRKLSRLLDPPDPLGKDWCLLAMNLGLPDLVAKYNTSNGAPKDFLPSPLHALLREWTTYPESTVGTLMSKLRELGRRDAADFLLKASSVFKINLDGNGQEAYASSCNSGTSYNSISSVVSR", "assay": "Eurofins kinase panel", "assay_type": "biochemical", "conditions": "read-out: Inhibition rate (%)"}, "[13]": {"biological_target": "T13, PRAK(h) (Homo sapiens, UniProt Q8IW41)", "T13 construct": "purchased Eurofins (KinaseProfiler)", "T13 sequence (Q8IW41 1-473)": "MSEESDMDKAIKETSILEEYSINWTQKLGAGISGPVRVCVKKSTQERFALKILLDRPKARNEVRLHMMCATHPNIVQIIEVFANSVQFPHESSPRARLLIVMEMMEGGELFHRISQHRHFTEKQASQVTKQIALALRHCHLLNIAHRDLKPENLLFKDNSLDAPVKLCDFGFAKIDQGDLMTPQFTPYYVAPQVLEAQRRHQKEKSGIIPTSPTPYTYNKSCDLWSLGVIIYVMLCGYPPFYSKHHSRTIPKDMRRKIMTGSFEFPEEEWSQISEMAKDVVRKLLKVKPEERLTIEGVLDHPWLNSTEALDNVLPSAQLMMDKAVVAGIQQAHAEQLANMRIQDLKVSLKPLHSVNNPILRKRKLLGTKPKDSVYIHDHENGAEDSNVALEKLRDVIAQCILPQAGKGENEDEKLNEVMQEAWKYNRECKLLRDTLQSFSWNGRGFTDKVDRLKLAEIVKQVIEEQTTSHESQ", "assay": "Eurofins kinase panel", "assay_type": "biochemical", "conditions": "read-out: Inhibition rate (%)"}, "[14]": {"biological_target": "T14, MST3(h) (Homo sapiens, UniProt Q9Y6E0)", "T14 construct": "purchased Eurofins (KinaseProfiler)", "T14 sequence (Q9Y6E0 whole entry)": "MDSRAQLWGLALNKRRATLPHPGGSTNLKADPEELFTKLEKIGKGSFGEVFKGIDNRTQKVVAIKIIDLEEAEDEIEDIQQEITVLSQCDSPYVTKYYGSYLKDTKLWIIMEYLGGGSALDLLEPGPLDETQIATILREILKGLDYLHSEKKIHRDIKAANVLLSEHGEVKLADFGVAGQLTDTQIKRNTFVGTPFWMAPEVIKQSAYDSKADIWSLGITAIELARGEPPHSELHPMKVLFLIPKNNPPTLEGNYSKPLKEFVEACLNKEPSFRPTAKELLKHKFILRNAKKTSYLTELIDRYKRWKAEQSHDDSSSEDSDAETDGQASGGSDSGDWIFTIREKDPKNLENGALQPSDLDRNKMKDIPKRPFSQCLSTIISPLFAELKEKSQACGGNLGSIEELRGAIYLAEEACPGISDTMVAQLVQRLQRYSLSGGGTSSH", "assay": "Eurofins kinase panel", "assay_type": "biochemical", "conditions": "read-out: Inhibition rate (%)"}, "[15]": {"biological_target": "T15, STK25(h) (Homo sapiens, UniProt O00506)", "T15 construct": "purchased Eurofins (KinaseProfiler)", "T15 sequence (O00506 whole entry)": "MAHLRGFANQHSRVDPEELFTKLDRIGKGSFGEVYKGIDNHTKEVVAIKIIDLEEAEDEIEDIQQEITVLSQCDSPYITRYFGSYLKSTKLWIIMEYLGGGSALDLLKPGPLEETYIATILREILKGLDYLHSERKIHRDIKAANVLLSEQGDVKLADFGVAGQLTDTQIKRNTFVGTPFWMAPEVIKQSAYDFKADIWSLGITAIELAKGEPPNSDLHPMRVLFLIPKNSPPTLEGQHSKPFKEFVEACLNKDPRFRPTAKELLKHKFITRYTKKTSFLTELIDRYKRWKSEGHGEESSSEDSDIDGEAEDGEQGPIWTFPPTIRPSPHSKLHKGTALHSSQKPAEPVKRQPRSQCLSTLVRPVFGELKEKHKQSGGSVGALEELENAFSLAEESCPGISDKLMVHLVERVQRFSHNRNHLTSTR", "assay": "Eurofins kinase panel", "assay_type": "biochemical", "conditions": "read-out: Inhibition rate (%)"}, "[16]": {"system": "bFGF-induced primary HUVECs", "assay": "bFGF-induced HUVEC proliferation (CCK-8)", "assay_type": "cell-based, human"}, "[17]": {"biological_target": "T16, Plk3(h) (Homo sapiens, UniProt Q9H4B4)", "T16 construct": "purchased Eurofins (KinaseProfiler)", "T16 sequence (Q9H4B4 whole entry)": "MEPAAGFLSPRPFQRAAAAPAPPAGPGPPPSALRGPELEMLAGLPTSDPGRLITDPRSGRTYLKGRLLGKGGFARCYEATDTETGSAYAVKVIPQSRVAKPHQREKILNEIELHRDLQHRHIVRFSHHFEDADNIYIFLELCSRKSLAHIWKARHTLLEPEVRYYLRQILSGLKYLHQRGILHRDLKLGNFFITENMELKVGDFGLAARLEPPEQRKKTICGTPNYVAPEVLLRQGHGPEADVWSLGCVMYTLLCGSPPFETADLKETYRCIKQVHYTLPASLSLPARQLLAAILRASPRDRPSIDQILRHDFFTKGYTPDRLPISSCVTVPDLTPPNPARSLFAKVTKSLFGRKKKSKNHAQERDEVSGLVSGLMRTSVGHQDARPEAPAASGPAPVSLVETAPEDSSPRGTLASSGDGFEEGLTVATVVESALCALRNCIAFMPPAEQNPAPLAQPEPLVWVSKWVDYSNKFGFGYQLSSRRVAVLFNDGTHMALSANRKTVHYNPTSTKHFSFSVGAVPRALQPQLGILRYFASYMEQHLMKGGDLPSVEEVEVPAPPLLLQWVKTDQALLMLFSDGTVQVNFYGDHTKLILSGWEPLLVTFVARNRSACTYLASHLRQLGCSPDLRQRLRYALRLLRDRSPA", "assay": "Eurofins kinase panel", "assay_type": "biochemical", "conditions": "read-out: Inhibition rate (%)"}}}
{"smiles": "COc1cc(OC)c(Cl)c(-c2ccc3c(NC(=O)c4ccc(N5CCNC(C)(C)C5)cc4)n[nH]c3n2)c1Cl", "note": "[3D185]", "values": [{"measurement": "inhibition at 0.01 µM", "setting": "[1]; 10 nM", "value": -16, "unit": "%"}, {"measurement": "inhibition at 0.1 µM", "setting": "[1]; 100 nM", "value": 8, "unit": "%"}, {"measurement": "inhibition at 1 µM", "setting": "[1]; 1000 nM", "value": 1, "unit": "%"}, {"measurement": "inhibition at 0.01 µM", "setting": "[2]; 10 nM", "value": -8, "unit": "%"}, {"measurement": "inhibition at 0.1 µM", "setting": "[2]; 100 nM", "value": -9, "unit": "%"}, {"measurement": "inhibition at 1 µM", "setting": "[2]; 1000 nM", "value": -1, "unit": "%"}, {"measurement": "inhibition at 0.01 µM", "setting": "[3]; 10 nM", "value": -2, "unit": "%"}, {"measurement": "inhibition at 0.1 µM", "setting": "[3]; 100 nM", "value": -1, "unit": "%"}, {"measurement": "inhibition at 1 µM", "setting": "[3]; 1000 nM", "value": 28, "unit": "%"}, {"measurement": "inhibition at 0.01 µM", "setting": "[4]; 10 nM", "value": -17, "unit": "%"}, {"measurement": "inhibition at 0.1 µM", "setting": "[4]; 100 nM", "value": -22, "unit": "%"}, {"measurement": "inhibition at 1 µM", "setting": "[4]; 1000 nM", "value": -36, "unit": "%"}, {"measurement": "IC50", "setting": "[5]", "value": "> 1000", "unit": "nM"}, {"measurement": "IC50", "setting": "[6]", "value": "> 1000", "unit": "nM"}, {"measurement": "IC50", "setting": "[7]", "value": "> 1000", "unit": "nM"}, {"measurement": "IC50", "setting": "[8]", "value": "> 1000", "unit": "nM"}, {"measurement": "inhibition at 0.01 µM", "setting": "[9]; 10 nM", "value": -8, "unit": "%"}, {"measurement": "inhibition at 0.1 µM", "setting": "[9]; 100 nM", "value": 2, "unit": "%"}, {"measurement": "inhibition at 1 µM", "setting": "[9]; 1000 nM", "value": -1, "unit": "%"}, {"measurement": "inhibition at 0.01 µM", "setting": "[10]; 10 nM", "value": 3, "unit": "%"}, {"measurement": "inhibition at 0.1 µM", "setting": "[10]; 100 nM", "value": 43, "unit": "%"}, {"measurement": "inhibition at 1 µM", "setting": "[10]; 1000 nM", "value": 81, "unit": "%"}, {"measurement": "inhibition at 0.01 µM", "setting": "[11]; 10 nM", "value": -3, "unit": "%"}, {"measurement": "inhibition at 0.1 µM", "setting": "[11]; 100 nM", "value": -2, "unit": "%"}, {"measurement": "inhibition at 1 µM", "setting": "[11]; 1000 nM", "value": -4, "unit": "%"}, {"measurement": "inhibition at 0.01 µM", "setting": "[12]; 10 nM", "value": 5, "unit": "%"}, {"measurement": "inhibition at 0.1 µM", "setting": "[12]; 100 nM", "value": 13, "unit": "%"}, {"measurement": "inhibition at 1 µM", "setting": "[12]; 1000 nM", "value": 19, "unit": "%"}, {"measurement": "inhibition at 0.01 µM", "setting": "[13]; 10 nM", "value": -18, "unit": "%"}, {"measurement": "inhibition at 0.1 µM", "setting": "[13]; 100 nM", "value": -24, "unit": "%"}, {"measurement": "inhibition at 1 µM", "setting": "[13]; 1000 nM", "value": -10, "unit": "%"}, {"measurement": "inhibition at 0.01 µM", "setting": "[14]; 10 nM", "value": -2, "unit": "%"}, {"measurement": "inhibition at 0.1 µM", "setting": "[14]; 100 nM", "value": 8, "unit": "%"}, {"measurement": "inhibition at 1 µM", "setting": "[14]; 1000 nM", "value": 70, "unit": "%"}, {"measurement": "inhibition at 0.01 µM", "setting": "[15]; 10 nM", "value": 7, "unit": "%"}, {"measurement": "inhibition at 0.1 µM", "setting": "[15]; 100 nM", "value": 22, "unit": "%"}, {"measurement": "inhibition at 1 µM", "setting": "[15]; 1000 nM", "value": 57, "unit": "%"}, {"measurement": "IC50", "setting": "[16]; Homo sapiens, HUVEC, bFGF 100 ng/mL, 48 h", "value": 0.5, "unit": "nM"}, {"measurement": "fold more potent on bFGF-induced than VEGF-induced HUVEC proliferation", "setting": "[16]; cellular assays", "value": "greater than 176 fold"}, {"measurement": "inhibition at 0.01 µM", "setting": "[17]; 10 nM", "value": 5, "unit": "%"}, {"measurement": "inhibition at 0.1 µM", "setting": "[17]; 100 nM", "value": 1, "unit": "%"}, {"measurement": "inhibition at 1 µM", "setting": "[17]; 1000 nM", "value": 6, "unit": "%"}]}
